From PubChem BioAssay (NCI) come the findings set out here.

Structures are written as SMILES.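 Assay format: 96-well plates, 48-hour exposure. GI50 marks 50% less growth. The concentration for full growth arrest is given as TGI.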 Where only a bound is given, the exact number is not on record here.

Among the test systems are SNB-19 CNS; CCRF-CEM leukemia; NCI-H23 lung; NCI/ADR-RES ovarian; HT29 colon; SF-539 CNS; OVCAR-8 ovarian; HOP-62 NSCLC; DU-145 prostate; OVCAR-3 ovarian.
What all share (experiment): DTP human tumour cell line panel, 48 h

Take `CO/C(=C1/NC(=O)C(Cc2ccc(O)c(Br)c2)N(C)C(=O)C(C)NC(=O)CCC/C=C(\C)CCC(C)OC1=O)c1ccccc1` (centres undefined): the GI50 in the test on SNB-19 CNS is 0.031 µM; in the test on CCRF-CEM leukemia, 0.0185 µM; in the test on NCI-H23 lung, 0.106 µM; with NCI/ADR-RES ovarian, 0.0566 µM; with HT29 colon it was below 0.0135 µM; in the test on SF-539 CNS, 0.0281 µM. The GI50 was 0.0437 µM in the test on OVCAR-8 ovarian, 0.0369 µM in the test with HOP-62 NSCLC, below 0.0185 µM with DU-145 prostate and below 0.0164 µM in the test with OVCAR-3 ovarian. Further, the TGI is 1.96 µM in the test on SNB-19 CNS; 0.0805 µM in the test on CCRF-CEM leukemia; 22.4 µM with NCI-H23 lung; 18.1 µM in the test with NCI/ADR-RES ovarian; 0.783 µM in the test on SF-539 CNS; 6.41 µM in the test on OVCAR-8 ovarian. Also, the total growth inhibition concentration (TGI) was found to be 1.18 µM in the test with HOP-62 NSCLC, 1.73 µM in the test with DU-145 prostate and 0.0376 µM with OVCAR-3 ovarian.
In the case of `O=C(O)c1ccc(/C=N/N=C2c3ccccc3-c3ccccc32)cc1`, the TGI is above 100 µM with SNB-19 CNS; above 100 µM in the test with CCRF-CEM leukemia; above 100 µM in the test on NCI-H23 lung; above 100 µM in the test with NCI/ADR-RES ovarian; above 100 µM with HT29 colon; 92.3 µM in the test on SF-539 CNS. In addition, the total growth inhibition concentration (TGI) in the test on OVCAR-8 ovarian was above 100 µM; in the test on HOP-62 NSCLC, above 100 µM; with DU-145 prostate, above 100 µM; in the test on OVCAR-3 ovarian, 67.4 µM.
For `CC/C(=C(/c1ccc(OCCN(C)C)cc1)c1ccc(OC(=O)CCCCCCCCC(=O)c2c(C)[nH]c(/C=C3\N=C(c4ccc[nH]4)C=C3OC)c2C)cc1)c1ccccc1`, the GI50 in the test with SNB-19 CNS was 12.1 µM; in the test with CCRF-CEM leukemia it was 0.768 µM; with NCI-H23 lung, 48.4 µM; in the test on NCI/ADR-RES ovarian it was 31.7 µM; in the test with HT29 colon, 5.18 µM; in the test on SF-539 CNS, 10.7 µM. Further, the GI50 in the test with OVCAR-8 ovarian is 9.06 µM; in the test with HOP-62 NSCLC, 17 µM; with DU-145 prostate, 8.06 µM; with OVCAR-3 ovarian, 10.9 µM. Further, the TGI in the test with SNB-19 CNS was 50.7 µM; with CCRF-CEM leukemia, above 100 µM; in the test with NCI-H23 lung it was above 100 µM; in the test on NCI/ADR-RES ovarian, above 100 µM; in the test on HT29 colon it was above 100 µM; with SF-539 CNS it was 61.6 µM. Moreover, the concentration for total growth inhibition (TGI) with OVCAR-8 ovarian, in the test on HOP-62 NSCLC, in the test with DU-145 prostate and in the test on OVCAR-3 ovarian was above 100 µM in each case.
As for `Cc1c(C(=O)c2ccccc2)[n+](=O)c2cc(F)c(F)cc2n1[O-]`, the GI50 with SNB-19 CNS was 2.3 µM; in the test on CCRF-CEM leukemia, 1.18 µM; in the test with NCI-H23 lung, 1.72 µM; in the test with NCI/ADR-RES ovarian, 1.76 µM; in the test on HT29 colon it was 2.52 µM; with SF-539 CNS, 3.94 µM. Moreover, the GI50 was 2.02 µM in the test with OVCAR-8 ovarian, 1.84 µM in the test on HOP-62 NSCLC, 10.8 µM in the test on DU-145 prostate and 1.53 µM in the test with OVCAR-3 ovarian. Further, the TGI in the test with SNB-19 CNS is 5.3 µM; in the test on CCRF-CEM leukemia, 2.89 µM; with NCI-H23 lung, 3.16 µM; in the test on NCI/ADR-RES ovarian, 3.23 µM; in the test on HT29 colon, above 100 µM; in the test on SF-539 CNS, 12.9 µM. Besides, the concentration for total growth inhibition (TGI) with OVCAR-8 ovarian is 4.32 µM; in the test with HOP-62 NSCLC it was 3.4 µM; with DU-145 prostate, 24.5 µM; in the test with OVCAR-3 ovarian, 3.04 µM.
For `Fc1ccc(Nc2nc3nonc3nc2Nc2ccc(I)cc2)cc1`, the GI50 in the test with SNB-19 CNS is 0.275 µM; in the test on CCRF-CEM leukemia it was 0.22 µM; with NCI-H23 lung, 0.265 µM; with NCI/ADR-RES ovarian it was 0.272 µM; in the test with HT29 colon it was 0.303 µM; with SF-539 CNS it was 0.275 µM. Moreover, the GI50 is 0.312 µM with OVCAR-8 ovarian, 0.344 µM in the test with HOP-62 NSCLC, 0.395 µM in the test with DU-145 prostate and 0.319 µM in the test with OVCAR-3 ovarian. For the same compound, the concentration for total growth inhibition (TGI) with SNB-19 CNS was found to be 15.9 µM; in the test with CCRF-CEM leukemia, 4.47 µM; in the test with NCI-H23 lung, 1.31 µM; in the test with NCI/ADR-RES ovarian, 1.95 µM; in the test with HT29 colon, 10.3 µM; in the test on SF-539 CNS, 2.58 µM. The total growth inhibition concentration (TGI) was found to be 12.8 µM in the test on OVCAR-8 ovarian, 1.92 µM with HOP-62 NSCLC, 16.8 µM in the test on DU-145 prostate and 14.1 µM with OVCAR-3 ovarian.
As to `CN(C)C1CN(C(=O)c2cc(-c3ccc4ncnc(N5CCc6cc(F)c(Cl)cc65)c4c3)cnc2N)C1`, the GI50 is 1.65 µM with SNB-19 CNS; 0.583 µM with CCRF-CEM leukemia; 1.25 µM in the test on NCI-H23 lung; 1.71 µM in the test with NCI/ADR-RES ovarian; 0.543 µM in the test on HT29 colon; 0.827 µM in the test with SF-539 CNS. The GI50 with OVCAR-8 ovarian is 0.819 µM; in the test with HOP-62 NSCLC, 0.586 µM; in the test with DU-145 prostate, 0.594 µM; in the test on OVCAR-3 ovarian, 0.585 µM. Also, the TGI was above 100 µM in the test with SNB-19 CNS; above 100 µM in the test on CCRF-CEM leukemia; above 100 µM with NCI-H23 lung; above 100 µM with NCI/ADR-RES ovarian; above 100 µM with HT29 colon; 5.07 µM in the test with SF-539 CNS. The TGI in the test on OVCAR-8 ovarian is above 100 µM; in the test with HOP-62 NSCLC, above 28.1 µM; with DU-145 prostate it was above 100 µM; in the test on OVCAR-3 ovarian it was 5.2 µM.
In the case of `Nc1n[nH]c2ccc([C@@H]3Nc4ccc5cn[nH]c5c4[C@H]4C5CCC(C5)[C@@H]34)cc12` (some centres undefined), the GI50 in the test on SNB-19 CNS was 0.601 µM; in the test on CCRF-CEM leukemia, 0.343 µM; with NCI-H23 lung, 0.453 µM; in the test on NCI/ADR-RES ovarian, 0.887 µM; with HT29 colon, 0.382 µM; in the test with SF-539 CNS, 0.299 µM. The GI50 with OVCAR-8 ovarian is 0.606 µM; with HOP-62 NSCLC, 0.485 µM; in the test on DU-145 prostate, 0.417 µM; in the test with OVCAR-3 ovarian it was 0.346 µM. Further, the concentration for total growth inhibition (TGI) in the test with SNB-19 CNS is above 100 µM; in the test with CCRF-CEM leukemia, above 100 µM; with NCI-H23 lung, 38.5 µM; in the test on NCI/ADR-RES ovarian it was above 24.1 µM; with HT29 colon, above 100 µM; with SF-539 CNS, 3.38 µM. For the same compound, the total growth inhibition concentration (TGI) in the test with OVCAR-8 ovarian is above 100 µM; with HOP-62 NSCLC, above 70 µM; in the test on DU-145 prostate, above 100 µM; in the test on OVCAR-3 ovarian it was 10.9 µM.
As for `COc1cc(C)[nH]c(=O)c1CNC(=O)c1c(C)n([C@H](C)C2CCN(CC(F)(F)F)CC2)c2ccccc12`, the GI50 in the test on SNB-19 CNS is 74.5 µM; in the test with CCRF-CEM leukemia, 50.4 µM; with NCI-H23 lung, above 100 µM; with NCI/ADR-RES ovarian it was 77.2 µM; with HT29 colon, 38.5 µM; in the test on SF-539 CNS, 67.4 µM. For the same compound, the GI50 in the test with OVCAR-8 ovarian was above 100 µM; in the test with HOP-62 NSCLC, above 100 µM; in the test on DU-145 prostate, 57.8 µM; in the test on OVCAR-3 ovarian it was 43.3 µM. Also, the TGI in the test with SNB-19 CNS, in the test on CCRF-CEM leukemia, with NCI-H23 lung, with NCI/ADR-RES ovarian, in the test on HT29 colon and in the test with SF-539 CNS was above 100 µM in each case. Besides, the total growth inhibition concentration (TGI) in the test with OVCAR-8 ovarian, in the test with HOP-62 NSCLC, in the test on DU-145 prostate and in the test with OVCAR-3 ovarian was above 100 µM each time.
For `COc1cc2c(cc1-c1coc3cc(O)ccc3c1=O)OCO2`, the concentration for total growth inhibition (TGI) in the test with SNB-19 CNS is 43.1 µM; in the test on CCRF-CEM leukemia, above 100 µM; in the test on NCI-H23 lung, 40.3 µM; in the test with NCI/ADR-RES ovarian it was 48.4 µM; with HT29 colon, above 100 µM; in the test with SF-539 CNS it was 48.6 µM. The TGI was 40.1 µM in the test with OVCAR-8 ovarian, 33.3 µM in the test on HOP-62 NSCLC, above 100 µM in the test on DU-145 prostate and above 100 µM with OVCAR-3 ovarian.
On to `O=c1/c(=C\c2ccc(Br)cc2)sc2n1C(c1ccc(Br)cc1)C1=C(N=2)c2ccc3ccccc3c2OCC1` (centres undefined), for which the GI50 in the test on SNB-19 CNS, with CCRF-CEM leukemia, in the test on NCI-H23 lung, in the test on NCI/ADR-RES ovarian, in the test on HT29 colon and with SF-539 CNS was above 100 µM in each case. Also, the GI50 in the test on OVCAR-8 ovarian, with HOP-62 NSCLC, in the test on DU-145 prostate and with OVCAR-3 ovarian was above 100 µM in each case. The concentration for total growth inhibition (TGI) with SNB-19 CNS, with CCRF-CEM leukemia, with NCI-H23 lung, in the test with NCI/ADR-RES ovarian, in the test with HT29 colon and in the test on SF-539 CNS was above 100 µM throughout. For the same compound, the total growth inhibition concentration (TGI) in the test on OVCAR-8 ovarian, in the test on HOP-62 NSCLC, with DU-145 prostate and in the test on OVCAR-3 ovarian was above 100 µM each time.
For the compound `Cc1cc(C)c2c(c1)N(C)c1ncnc(-n3cnc4cc(C)ccc43)c1CC2C` (centres undefined), the GI50 was 4.22 µM with SNB-19 CNS; 2.78 µM in the test on CCRF-CEM leukemia; 4.87 µM with NCI-H23 lung; 3.05 µM in the test on NCI/ADR-RES ovarian; 3.13 µM in the test on HT29 colon; 2.74 µM in the test on SF-539 CNS. For the same compound, the GI50 in the test on OVCAR-8 ovarian was 3.79 µM; with HOP-62 NSCLC, 4.71 µM; in the test with DU-145 prostate it was 4.44 µM; with OVCAR-3 ovarian, 3.32 µM. Besides, the concentration for total growth inhibition (TGI) in the test on SNB-19 CNS is above 100 µM; with CCRF-CEM leukemia it was 11.4 µM; in the test with NCI-H23 lung, above 100 µM; with NCI/ADR-RES ovarian, 19.5 µM; in the test on HT29 colon, 10.5 µM; in the test with SF-539 CNS it was 9.16 µM. Besides, the concentration for total growth inhibition (TGI) worked out at 20 µM in the test on OVCAR-8 ovarian, 30 µM in the test with HOP-62 NSCLC, 63.7 µM in the test on DU-145 prostate and 14.7 µM in the test on OVCAR-3 ovarian.
